In data set [1] the test system is Phanerochaete chrysosporium. Description: Substrate removal / decolorization by P. chrysosporium culture. The class given is cell-based. The note with it: for % Decolorization, P. chrysosporium: 14 days. How it is done: Environ. Microbiol., 1981, 42:290-296), with the addition of 75 mg adenine (6-aminopurine) and 27 mg L-phenylalanine-per-liter. This addition accelerated the growth of the fungus without inhibiting ligninase activity. […] […] Cultures were incubated at 37° C. for 7 to 15 days with shaking (250 rpm). Solid agar media were also employed.

For a further data set, the system named is ligninase. The data set can be described thus: Oxidation of dyes by P. chrysosporium ligninase (crude preparation). The note with it: crude enzyme, conditions specific for ligninase. In kind it is biochemical, Phanerochaete chrysosporium. As to the method: The peroxidase assay was carried out using a composition having a final volume of 1.0 ml. The reaction mixture contained 250 μl of 100 mM HEPES buffer (pH 8), 500 μl of 10 mM 2,4-dichlorophenol, 100 μl of 1 mM aminoantipyrine, 50 μl enzyme preparation and 100 μl 50 mM H2 O2. The reaction was initiated by the addition of hydrogen peroxide at 37° C. One unit of peroxidase activity was expressed as the amount of enzyme required for an increase of one absorbance-unit-per-minute at 510 nm. Assays of manganese peroxidase and of ligninase from P. chrysosporium were carried out as previously described by Paszczynski et al in "Manganese peroxidase of Phanerochaete chrysosporium: Purification," Methods Enzymol. 161:264-270, incorporated herein by reference. […] Biophys., 1986, 44:750-765. Preparation and assay of ligninase and manganese peroxidase from these P. chrysosporium cultures were carried out as previously reported by Paszczynski, et al., Methods Enzymol., 1988, 161:264-270. […] Purification," Methods Enzymol. 161:264-270. […] Cycle time was 30 seconds with the last measure after 15 minutes. […] The reaction conditions were the same as for acid yellow 9. No decolorization of the synthesized dyes by ligninase was detected.

Another data set concerns Mn(II)-peroxidase. The data set can be described thus: Oxidation of dyes by P. chrysosporium Mn(II)-peroxidase. The class given is biochemical, Phanerochaete chrysosporium. The note with it: crude enzyme, conditions specific for Mn(II)-peroxidase. How it is done:
The peroxidase assay was carried out using a composition having a final volume of 1.0 ml. The reaction mixture contained 250 μl of 100 mM HEPES buffer (pH 8), 500 μl of 10 mM 2,4-dichlorophenol, 100 μl of 1 mM aminoantipyrine, 50 μl enzyme preparation and 100 μl 50 mM H2 O2. The reaction was initiated by the addition of hydrogen peroxide at 37° C. One unit of peroxidase activity was expressed as the amount of enzyme required for an increase of one absorbance-unit-per-minute at 510 nm. Assays of manganese peroxidase and of ligninase from P. chrysosporium were carried out as previously described by Paszczynski et al in "Manganese peroxidase of Phanerochaete chrysosporium: Purification," Methods Enzymol. 161:264-270, incorporated herein by reference. […] Biophys., 1986, 44:750-765. Preparation and assay of ligninase and manganese peroxidase from these P. chrysosporium cultures were carried out as previously reported by Paszczynski, et al., Methods Enzymol., 1988, 161:264-270. […] Purification," Methods Enzymol. 161:264-270. […] Cycle time was 10 seconds, with the last measure after three minutes of incubation.

The target of data set [2] is T1, horseradish peroxidase type II (Armoracia rusticana, UniProt P00433).
T1 sequence (P00433 31-338): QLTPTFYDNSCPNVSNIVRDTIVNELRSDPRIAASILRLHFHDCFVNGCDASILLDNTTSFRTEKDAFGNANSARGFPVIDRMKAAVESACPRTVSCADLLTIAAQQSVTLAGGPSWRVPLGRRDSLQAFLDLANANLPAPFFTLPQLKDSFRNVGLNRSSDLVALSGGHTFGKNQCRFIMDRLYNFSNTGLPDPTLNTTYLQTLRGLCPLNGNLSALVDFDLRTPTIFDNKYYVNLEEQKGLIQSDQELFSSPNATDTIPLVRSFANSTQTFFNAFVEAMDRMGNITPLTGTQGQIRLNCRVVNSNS
The data set can be described thus: Oxidation of azo dyes by horseradish peroxidase preparation. The class given is biochemical. The note with it: pH 8, 37° C., H2O2. As to the method: The reaction was started with the addition of 100 μl of 50 mM H2 O2 and was followed for 1 min at 37° C. Controls were run with no addition of H2 O2 or with the addition of the hemeperoxidase inhibitor KCN (final concentration 25 μM).

In data set [3] the test system is S. chromofuscus A11 extracellular peroxidase. The data set can be described thus: Oxidation of azo dyes by S. chromofuscus A11 crude enzyme preparation. The note with it: pH 8, 37° C., H2O2. In kind it is biochemical, Streptomyces chromofuscus A11. How it is done:
Environ. Microbiol., 1988, 54:3057-3063. […] Microbiol. Biotechnol., 34:661-667. Incubation took place at 37° C. with shaking at 250 rpm. The culture supernatant was collected after 48 h incubation, and vacuum-filtered through Whatman no. 1 filter paper. The filtrate was concentrated approximately 40- to 50-fold by ultrafiltration through an Amicon ultrafiltration stirred cell (series no. 8000, Amicon Corp.) with a disc PM-10 filter (diameter, 76 mm). Protein in the concentrated filtrate was then precipitated from solution with 80% ammonium sulfate. The precipitate was collected by centrifugation (15 min, 10,000 rpm). The pellet was resuspended in 10 ml of 20 mM HEPES buffer (pH 8) and dialyzed overnight against the same buffer at 4° C. These preparations were then stored in 1-ml aliquots at -20° C. until used. Before using, the preparation was filtered through a NAP-25 Sephadex G-25 disposable column (Pharmacia) in order to separate a yellowish protein fraction from a pink low-molecular-weight fraction. The yellowish fraction was used as the source of enzyme. […] The reaction was started with the addition of 100 μl of 50 mM H2 O2 and was followed for 1 min at 37° C. Controls were run with no addition of H2 O2 or with the addition of the hemeperoxidase inhibitor KCN (final concentration 25 μM).

Setting [4] is: beginning concentration 100 ppm.
Where [5] appears, read: beginning concentration 150 ppm.
Where [6] appears, read: beginning concentration 200 ppm.
[7] abbreviates: beginning concentration 300 ppm.

Structures are written as SMILES.

On to `O=S(=O)(O)c1ccc(N=Nc2ccc(O)cc2)cc1` [compound 6], for which the “Concentration of substrate after ten days cultivation with P. chrysosporium” value (“Concentration … with P. chrysosporium” below) in data set [1] (setting [4]) is recorded as 12.909 ppm; in data set [1] (setting [5]) it was 14.003 ppm; in data set [1] (setting [6]), 33.309 ppm; in data set [1] (setting [7]), 39.326 ppm. Besides, the “% Decolorization, P. chrysosporium” value is 72% in data set [1] (initial concn 150 ppm) and 18% in data set [1] (initial concn 300 ppm). For the same molecule, the “Oxidation rate of azo dyes, P. chrysosporium Ligninase” value in the data set on ligninase is given as 0.45 μmoles per minute per ml. Further, in the data set with Mn(II)-peroxidase, the “Oxidation rate of azo dyes, P. chrysosporium Mn-peroxidase” value came to 0.02 μmoles per minute per ml. Besides, in data set [2], the “Oxidation rate of azo dyes, Horseradish peroxidase” value is reported as 0.47 μmoles per minute per ml. Further, in data set [3], the “Oxidation rate of azo dyes, S. chromofuscus peroxidase” value stood at 0.42 μmoles per minute per ml.
Take `Cc1cc(O)c(N=Nc2ccc(S(=O)(=O)O)cc2)cc1C` [compound 7]: the “Concentration … with P. chrysosporium” value in data set [1] (setting [4]) stood at 62.893 ppm; in data set [1] (setting [5]) it was 41.044 ppm; in data set [1] (setting [6]), 10.200 ppm; in data set [1] (setting [7]), 246.044 ppm. Moreover, the “% Decolorization, P. chrysosporium” value in data set [1] (initial concn 150 ppm) was 81%; in data set [1] (initial concn 300 ppm), 55%. In addition, the “Oxidation rate of azo dyes, P. chrysosporium Ligninase” value with ligninase worked out at 1.35 μmoles per minute per ml. In addition, the “Oxidation rate of azo dyes, P. chrysosporium Mn-peroxidase” value in the data set on Mn(II)-peroxidase is listed as 0.11 μmoles per minute per ml. In data set [2], the “Oxidation rate of azo dyes, Horseradish peroxidase” value is 0.34 μmoles per minute per ml. In addition, in data set [3], the “Oxidation rate of azo dyes, S. chromofuscus peroxidase” value is 0.19 μmoles per minute per ml.
Take `Cc1ccc(O)c(N=Nc2ccc(S(=O)(=O)O)cc2)c1` [compound 8]: the “Concentration … with P. chrysosporium” value in data set [1] (setting [4]) is reported as 16.079 ppm; in data set [1] (setting [5]), 28.401 ppm; in data set [1] (setting [6]) it was 29.704 ppm; in data set [1] (setting [7]), 135.680 ppm. Moreover, the “% Decolorization, P. chrysosporium” value came to 27% in data set [1] (initial concn 150 ppm) and 49% in data set [1] (initial concn 300 ppm). Also, the “Oxidation rate of azo dyes, P. chrysosporium Ligninase” value with ligninase amounted to 0.49 μmoles per minute per ml. Further, the “Oxidation rate of azo dyes, P. chrysosporium Mn-peroxidase” value with Mn(II)-peroxidase is 0.32 μmoles per minute per ml. Further, the “Oxidation rate of azo dyes, Horseradish peroxidase” value in data set [2] was found to be 0.07 μmoles per minute per ml. Also, in data set [3], the “Oxidation rate of azo dyes, S. chromofuscus peroxidase” value amounted to 0.14 μmoles per minute per ml.
Turning to `CCc1ccc(O)c(N=Nc2ccc(S(=O)(=O)O)cc2)c1` [compound 9], the “Concentration … with P. chrysosporium” value is reported as 81.911 ppm in data set [1] (setting [4]), 109.822 ppm in data set [1] (setting [5]), 32.044 ppm in data set [1] (setting [6]) and 153.733 ppm in data set [1] (setting [7]). Also, the “% Decolorization, P. chrysosporium” value is listed as 89% in data set [1] (initial concn 150 ppm) and 86% in data set [1] (initial concn 300 ppm). The “Oxidation rate of azo dyes, P. chrysosporium Ligninase” value with ligninase came out at 1.27 μmoles per minute per ml. The “Oxidation rate of azo dyes, P. chrysosporium Mn-peroxidase” value in the data set on Mn(II)-peroxidase was 0.07 μmoles per minute per ml. Moreover, the “Oxidation rate of azo dyes, Horseradish peroxidase” value in data set [2] was determined as 0.20 μmoles per minute per ml. In addition, in data set [3], the “Oxidation rate of azo dyes, S. chromofuscus peroxidase” value came to 0.35 μmoles per minute per ml.
`O=S(=O)(O)c1ccc(N=Nc2cc(F)c(O)c(F)c2)cc1` [compound 12]: the “Concentration … with P. chrysosporium” value in data set [1] (setting [4]) was found to be 2.368 ppm; in data set [1] (setting [5]), 44.227 ppm; in data set [1] (setting [6]), 6.160 ppm; in data set [1] (setting [7]), 198.240 ppm. Also, the “% Decolorization, P. chrysosporium” value in data set [1] (initial concn 150 ppm) worked out at 86%; in data set [1] (initial concn 300 ppm), 93%. For the same molecule, in the data set with ligninase, the “Oxidation rate of azo dyes, P. chrysosporium Ligninase” value was 11.61 μmoles per minute per ml. The “Oxidation rate of azo dyes, P. chrysosporium Mn-peroxidase” value with Mn(II)-peroxidase was determined as 0.00 μmoles per minute per ml. Further, the “Oxidation rate of azo dyes, Horseradish peroxidase” value in data set [2] was found to be 0.17 μmoles per minute per ml. Besides, the “Oxidation rate of azo dyes, S. chromofuscus peroxidase” value in data set [3] amounted to 0.15 μmoles per minute per ml.
As to `CN(C)c1ccc(N=Nc2ccc(S(=O)(=O)O)cc2)cc1` [compound 14], the “Concentration … with P. chrysosporium” value is 4.411 ppm in data set [1] (setting [4]), 11.843 ppm in data set [1] (setting [5]), 15.529 ppm in data set [1] (setting [6]) and 36.800 ppm in data set [1] (setting [7]). Besides, the figures for the “% Decolorization, P. chrysosporium” value in data set [1] (initial concn 150 ppm) and in data set [1] (initial concn 300 ppm) were 93% and 94%, respectively. Also, the “Oxidation rate of azo dyes, P. chrysosporium Ligninase” value in the data set with ligninase was 0.32 μmoles per minute per ml. The “Oxidation rate of azo dyes, P. chrysosporium Mn-peroxidase” value with Mn(II)-peroxidase was determined as 0.15 μmoles per minute per ml. In addition, in data set [2], the “Oxidation rate of azo dyes, Horseradish peroxidase” value is listed as 0.07 μmoles per minute per ml. For the same molecule, in data set [3], the “Oxidation rate of azo dyes, S. chromofuscus peroxidase” value is given as 0.10 μmoles per minute per ml.
Take `COc1ccc(N=Nc2ccc(S(=O)(=O)O)cc2)cc1` [compound 16]: the “Concentration … with P. chrysosporium” value in data set [1] (setting [4]) is given as 67.801 ppm; in data set [1] (setting [5]), 92.683 ppm; in data set [1] (setting [6]), 179.300 ppm; in data set [1] (setting [7]), 219.079 ppm. In addition, the “% Decolorization, P. chrysosporium” value in data set [1] (initial concn 150 ppm) came to 61%; in data set [1] (initial concn 300 ppm), 55%. Besides, the “Oxidation rate of azo dyes, P. chrysosporium Ligninase” value in the data set with ligninase is 0.25 μmoles per minute per ml. For the same molecule, the “Oxidation rate of azo dyes, P. chrysosporium Mn-peroxidase” value in the data set on Mn(II)-peroxidase is reported as 0.00 μmoles per minute per ml. Also, the “Oxidation rate of azo dyes, Horseradish peroxidase” value in data set [2] worked out at 0.06 μmoles per minute per ml. The “Oxidation rate of azo dyes, S. chromofuscus peroxidase” value in data set [3] is on record as 0.06 μmoles per minute per ml.
As for `O=S(=O)(O)c1ccc(N=Nc2c(O)ccc3ccccc23)cc1` [compound 31], the “Oxidation rate of azo dyes, P. chrysosporium Ligninase” value in the data set on ligninase stood at 1.18 μmoles per minute per ml. Moreover, the “Oxidation rate of azo dyes, P. chrysosporium Mn-peroxidase” value with Mn(II)-peroxidase is 0.47 μmoles per minute per ml. In data set [2], the “Oxidation rate of azo dyes, Horseradish peroxidase” value was 0.52 μmoles per minute per ml. In data set [3], the “Oxidation rate of azo dyes, S. chromofuscus peroxidase” value is 0.09 μmoles per minute per ml.
